In US8415469B2, “Compounds and methods for kinase modulation, and indications therefor” (Plexxikon Inc., priority 2005, dated 2013):

What was measured:
Format in all cases: biochemical
Flt1 = molecular target: T1, Flt1 (Homo sapiens, UniProt P17948); assay: AlphaScreen kinase assay, Flt1; conditions: read-out: IC50, activity toward kinase Flt1
T1 construct: P1826.pETN6 BI-PTP FLT1 M799-D1165-X WT; His6 (N); made in house; host or cells: E. coli (PTP1B co-expressed)
T1 sequence (P17948 with tags, fused parts or gaps): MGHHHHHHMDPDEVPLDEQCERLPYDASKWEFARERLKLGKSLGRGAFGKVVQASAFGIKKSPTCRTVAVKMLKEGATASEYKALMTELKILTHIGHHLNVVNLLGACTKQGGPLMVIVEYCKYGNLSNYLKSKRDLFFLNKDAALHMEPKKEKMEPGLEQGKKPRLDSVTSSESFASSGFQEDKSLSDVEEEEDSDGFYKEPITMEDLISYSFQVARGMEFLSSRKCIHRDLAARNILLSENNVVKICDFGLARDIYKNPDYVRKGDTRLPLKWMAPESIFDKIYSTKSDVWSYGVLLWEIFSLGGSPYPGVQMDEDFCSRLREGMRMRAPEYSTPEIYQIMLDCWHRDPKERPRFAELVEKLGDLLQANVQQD

FGFR1 = molecular target: T2, FGFR1 (Homo sapiens, UniProt P11362, C488A/C584S); assay: AlphaScreen kinase assay, FGFR1; conditions: read-out: IC50, activity toward kinase FGFR
T2 construct: P1351.pET N6 BI-PTP FGFR A458-E765-X C488A, C584S; made in house; host or cells: E. coli (PTP1B co-expressed)
T2 sequence (P11362 458-765 C488A/C584S): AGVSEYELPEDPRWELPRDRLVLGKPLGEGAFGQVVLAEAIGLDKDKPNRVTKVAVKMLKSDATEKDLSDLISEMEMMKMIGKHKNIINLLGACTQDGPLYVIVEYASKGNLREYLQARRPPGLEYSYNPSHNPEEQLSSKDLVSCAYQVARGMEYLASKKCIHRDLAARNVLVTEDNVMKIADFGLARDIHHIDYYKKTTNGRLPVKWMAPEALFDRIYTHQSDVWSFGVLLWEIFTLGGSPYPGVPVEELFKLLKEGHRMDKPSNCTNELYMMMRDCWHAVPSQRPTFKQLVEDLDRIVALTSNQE

B-Raf = molecular target: T3, B-Raf (Homo sapiens, UniProt P15056); assay: AlphaScreen kinase assay, B-Raf; conditions: read-out: IC50, activity toward kinase B-Raf
T3 construct: purchased Upstate Biotechnology
T3 sequence (P15056 whole entry): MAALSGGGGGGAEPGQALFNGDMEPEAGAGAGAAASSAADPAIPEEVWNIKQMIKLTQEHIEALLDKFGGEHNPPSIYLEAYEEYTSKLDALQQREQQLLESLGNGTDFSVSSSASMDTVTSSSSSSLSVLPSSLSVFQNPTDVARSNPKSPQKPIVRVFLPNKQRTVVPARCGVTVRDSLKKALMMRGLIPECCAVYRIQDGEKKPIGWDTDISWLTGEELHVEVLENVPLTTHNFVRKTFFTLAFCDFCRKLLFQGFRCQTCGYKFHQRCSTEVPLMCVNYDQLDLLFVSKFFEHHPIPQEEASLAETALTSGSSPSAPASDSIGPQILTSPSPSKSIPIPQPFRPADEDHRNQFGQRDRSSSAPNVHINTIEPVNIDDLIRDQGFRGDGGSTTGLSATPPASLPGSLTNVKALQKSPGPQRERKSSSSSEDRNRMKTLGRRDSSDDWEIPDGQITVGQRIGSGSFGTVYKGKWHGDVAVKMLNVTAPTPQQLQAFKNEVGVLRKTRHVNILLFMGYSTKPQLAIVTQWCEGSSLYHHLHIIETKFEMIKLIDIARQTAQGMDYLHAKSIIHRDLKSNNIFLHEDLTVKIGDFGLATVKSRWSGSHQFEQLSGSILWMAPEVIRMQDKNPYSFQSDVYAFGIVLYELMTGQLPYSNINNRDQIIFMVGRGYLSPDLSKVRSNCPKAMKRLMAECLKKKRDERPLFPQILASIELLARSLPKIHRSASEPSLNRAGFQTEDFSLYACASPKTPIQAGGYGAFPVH

Jnk1 = molecular target: T4, Jnk1 (Homo sapiens, UniProt P45983); assay: AlphaScreen kinase assay, Jnk1; conditions: read-out: IC50, activity toward kinase Jnk1
T4 construct: purchased Upstate Biotechnology
T4 sequence (P45983 whole entry): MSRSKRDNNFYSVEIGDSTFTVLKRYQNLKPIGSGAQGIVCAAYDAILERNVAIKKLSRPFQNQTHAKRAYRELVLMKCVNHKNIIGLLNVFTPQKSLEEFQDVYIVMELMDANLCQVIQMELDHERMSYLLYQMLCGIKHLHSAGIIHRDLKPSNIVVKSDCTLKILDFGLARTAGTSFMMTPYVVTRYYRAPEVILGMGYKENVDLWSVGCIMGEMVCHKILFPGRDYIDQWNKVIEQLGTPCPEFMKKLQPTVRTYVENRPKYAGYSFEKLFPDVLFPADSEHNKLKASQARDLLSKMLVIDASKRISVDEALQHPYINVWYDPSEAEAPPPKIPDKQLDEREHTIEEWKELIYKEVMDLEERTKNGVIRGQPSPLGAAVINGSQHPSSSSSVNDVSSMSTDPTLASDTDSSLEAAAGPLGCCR

B-Raf V600E = molecular target: T5, B-Raf V600E (Homo sapiens, UniProt P15056, V600E); assay: AlphaScreen kinase assay, B-Raf V600E; conditions: read-out: IC50, activity toward kinase B-Raf V600E
T5 construct: P4254. pFastBacBD-CDC37 BRAF D437-K722-X, V600E; His6 with pFastBac HT leader (TEV site) (N); made in house; host or cells: Sf9 (baculovirus; chaperone CDC37 co-expressed)
T5 sequence (P15056 with tags, fused parts or gaps V600E): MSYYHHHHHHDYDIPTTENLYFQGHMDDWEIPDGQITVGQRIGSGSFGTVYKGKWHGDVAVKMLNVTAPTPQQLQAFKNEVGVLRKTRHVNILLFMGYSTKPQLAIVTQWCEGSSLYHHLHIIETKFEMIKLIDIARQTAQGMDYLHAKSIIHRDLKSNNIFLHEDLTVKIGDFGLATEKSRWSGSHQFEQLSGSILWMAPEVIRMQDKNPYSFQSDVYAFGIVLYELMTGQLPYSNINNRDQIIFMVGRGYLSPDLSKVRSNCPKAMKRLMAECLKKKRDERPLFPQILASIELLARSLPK

Fms = molecular target: T6, Fms (Homo sapiens, UniProt P07333); assay: AlphaScreen kinase assay, Fms; conditions: read-out: IC50, activity toward kinase Fms
T6 construct: purchased Upstate Biotechnology
T6 sequence (P07333 20-972): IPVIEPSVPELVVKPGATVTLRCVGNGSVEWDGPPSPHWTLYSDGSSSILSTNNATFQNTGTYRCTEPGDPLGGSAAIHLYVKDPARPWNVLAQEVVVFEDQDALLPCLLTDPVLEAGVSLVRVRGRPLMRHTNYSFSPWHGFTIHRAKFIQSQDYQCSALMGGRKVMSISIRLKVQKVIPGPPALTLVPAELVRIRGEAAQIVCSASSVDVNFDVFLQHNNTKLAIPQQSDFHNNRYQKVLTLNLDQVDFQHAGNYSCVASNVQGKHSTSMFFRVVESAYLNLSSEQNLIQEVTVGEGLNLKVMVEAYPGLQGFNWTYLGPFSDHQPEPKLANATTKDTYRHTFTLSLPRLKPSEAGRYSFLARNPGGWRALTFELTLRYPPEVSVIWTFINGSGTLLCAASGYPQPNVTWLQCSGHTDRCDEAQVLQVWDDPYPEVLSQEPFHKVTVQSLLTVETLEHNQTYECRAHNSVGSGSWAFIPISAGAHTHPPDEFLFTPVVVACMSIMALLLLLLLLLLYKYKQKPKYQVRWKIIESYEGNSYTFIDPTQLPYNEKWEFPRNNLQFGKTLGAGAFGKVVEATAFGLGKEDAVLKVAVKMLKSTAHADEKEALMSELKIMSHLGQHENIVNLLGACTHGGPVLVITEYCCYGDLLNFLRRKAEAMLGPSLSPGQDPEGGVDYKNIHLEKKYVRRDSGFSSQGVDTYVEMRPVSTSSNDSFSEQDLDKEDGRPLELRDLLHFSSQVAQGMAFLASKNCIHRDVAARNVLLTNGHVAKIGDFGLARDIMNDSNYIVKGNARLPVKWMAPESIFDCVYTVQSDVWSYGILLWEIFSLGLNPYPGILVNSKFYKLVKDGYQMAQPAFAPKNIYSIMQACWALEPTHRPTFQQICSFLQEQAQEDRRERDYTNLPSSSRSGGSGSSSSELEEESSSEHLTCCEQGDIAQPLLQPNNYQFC

Jnk3 = molecular target: T7, Jnk3 (Homo sapiens, UniProt P53779); assay: AlphaScreen kinase assay, Jnk3; conditions: read-out: IC50, activity toward kinase Jnk3
T7 construct: purchased Upstate Biotechnology
T7 sequence (P53779 whole entry): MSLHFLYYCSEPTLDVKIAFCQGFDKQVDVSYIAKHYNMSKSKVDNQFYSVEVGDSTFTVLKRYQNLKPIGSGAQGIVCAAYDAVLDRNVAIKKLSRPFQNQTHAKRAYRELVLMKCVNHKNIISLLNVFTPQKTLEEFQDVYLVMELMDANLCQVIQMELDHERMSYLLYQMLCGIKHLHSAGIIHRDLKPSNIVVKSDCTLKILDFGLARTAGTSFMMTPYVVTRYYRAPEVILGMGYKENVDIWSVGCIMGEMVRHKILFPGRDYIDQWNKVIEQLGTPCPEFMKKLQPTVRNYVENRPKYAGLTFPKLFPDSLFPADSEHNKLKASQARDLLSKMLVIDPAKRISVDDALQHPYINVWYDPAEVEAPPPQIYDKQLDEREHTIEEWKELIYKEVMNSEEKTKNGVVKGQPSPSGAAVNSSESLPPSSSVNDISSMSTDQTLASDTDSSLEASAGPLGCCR

Kit = molecular target: T8, Kit (Homo sapiens, UniProt P10721); assay: AlphaScreen kinase assay, Kit; conditions: read-out: IC50, activity toward kinase Kit
T8 construct: P1332.N6 BI PTP KIT M552-K948-X COD; His6 (N); made in house; host or cells: E. coli (PTP1B co-expressed)
T8 sequence (P10721 with tags, fused parts or gaps): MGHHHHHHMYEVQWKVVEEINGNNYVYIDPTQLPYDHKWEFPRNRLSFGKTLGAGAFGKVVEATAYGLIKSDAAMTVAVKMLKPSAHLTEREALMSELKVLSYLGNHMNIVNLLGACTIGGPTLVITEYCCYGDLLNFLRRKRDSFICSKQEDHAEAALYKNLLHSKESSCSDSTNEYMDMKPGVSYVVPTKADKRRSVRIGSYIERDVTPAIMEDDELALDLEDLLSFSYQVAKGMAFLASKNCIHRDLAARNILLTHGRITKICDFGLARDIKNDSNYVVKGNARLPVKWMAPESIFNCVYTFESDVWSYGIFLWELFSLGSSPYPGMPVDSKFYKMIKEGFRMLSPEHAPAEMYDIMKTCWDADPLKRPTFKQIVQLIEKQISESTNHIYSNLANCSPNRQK

c-Raf-1 = molecular target: T9, c-Raf-1 (Homo sapiens, UniProt P04049); assay: AlphaScreen kinase assay, c-Raf-1; conditions: read-out: IC50, activity toward kinase c-Raf-1
T9 construct: purchased Upstate Biotechnology
T9 sequence (P04049 whole entry): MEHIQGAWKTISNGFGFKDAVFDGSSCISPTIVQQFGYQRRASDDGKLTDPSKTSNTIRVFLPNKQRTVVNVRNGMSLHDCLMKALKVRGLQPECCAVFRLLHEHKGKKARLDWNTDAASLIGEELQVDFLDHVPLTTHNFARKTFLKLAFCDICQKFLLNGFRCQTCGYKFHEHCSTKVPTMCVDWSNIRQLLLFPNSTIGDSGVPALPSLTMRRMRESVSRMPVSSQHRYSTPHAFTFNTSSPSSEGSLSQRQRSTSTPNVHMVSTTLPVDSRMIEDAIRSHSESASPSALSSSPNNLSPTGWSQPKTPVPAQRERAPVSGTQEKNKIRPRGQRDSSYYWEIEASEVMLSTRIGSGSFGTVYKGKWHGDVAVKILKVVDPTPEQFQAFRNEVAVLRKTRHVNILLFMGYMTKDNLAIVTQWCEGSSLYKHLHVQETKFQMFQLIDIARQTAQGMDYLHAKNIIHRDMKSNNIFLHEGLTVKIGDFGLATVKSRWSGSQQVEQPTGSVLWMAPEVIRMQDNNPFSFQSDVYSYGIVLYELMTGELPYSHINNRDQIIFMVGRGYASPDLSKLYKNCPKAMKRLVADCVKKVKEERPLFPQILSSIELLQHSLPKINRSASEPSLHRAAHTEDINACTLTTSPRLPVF

Ret = molecular target: T10, Ret (Homo sapiens, UniProt P07949); assay: AlphaScreen kinase assay, Ret; conditions: read-out: IC50, activity toward kinase Ret
T10 construct: P1378.pET-SF BI-PTP RET H661-R1012 HIS; made in house
T10 sequence (P07949 with tags, fused parts or gaps): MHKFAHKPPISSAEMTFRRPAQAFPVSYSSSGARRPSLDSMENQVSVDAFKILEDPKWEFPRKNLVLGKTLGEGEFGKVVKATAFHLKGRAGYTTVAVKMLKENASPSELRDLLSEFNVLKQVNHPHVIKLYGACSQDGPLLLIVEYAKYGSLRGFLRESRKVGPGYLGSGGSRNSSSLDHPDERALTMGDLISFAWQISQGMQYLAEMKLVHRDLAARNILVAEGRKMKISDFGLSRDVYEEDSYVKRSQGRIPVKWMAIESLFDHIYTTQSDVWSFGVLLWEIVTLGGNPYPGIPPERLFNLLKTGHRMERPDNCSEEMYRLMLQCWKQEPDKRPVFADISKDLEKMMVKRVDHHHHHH

Measured: IC50

O=C(c1ccc(Cl)cc1Cl)c1c[nH]c2ncc(-c3cccnc3)cc12 [Compound P-1556]
≤ 10 µM: Flt1 | FGFR1 | B-Raf | Jnk1 | B-Raf V600E | Fms

O=C(Nc1cccc(C(=O)c2c[nH]c3ncc(Cl)cc23)c1)Nc1ccon1 [Compound P-1775, 1-[3-(5-Chloro-1H-pyrrolo[2,3-b]pyridine-3-carbonyl)-phenyl]-3-isoxazol-3-yl-urea]
≤ 10 µM: B-Raf | Jnk1 | B-Raf V600E | Jnk3 | Fms

CCCS(=O)(=O)Nc1ccc(F)c(C(=O)c2c[nH]c3ncc(-c4cccc(CN5CCOCC5)c4)cc23)c1F [Compound P-1878, Propane-1-sulfonic acid {2,4-difluoro-3-[5-(3-morpholin-4-ylmethyl-phenyl)-1H-pyrrolo[2,3-b]pyridine-3-carbonyl]-phenyl}-amide]
≤ 10 µM: Kit | B-Raf | Jnk1 | B-Raf V600E | Fms | c-Raf-1

CN(C)c1ccc(Nc2ccc3cc[nH]c3n2)cc1 [Compound P-1356, N,N-Dimethyl-N′-(1H -pyrrolo[2,3-b]pyridin-6-yl)-benzene-1,4-diamine]
≤ 10 µM: Jnk1 | Jnk3

COc1cccc(NC(=O)Nc2cccc(C(=O)c3c[nH]c4ncccc34)c2)c1 [Compound P-1707, 1-(3-Methoxy-phenyl)-3-[3-(1H-pyrrolo[2,3-b]pyridine-3-carbonyl)-phenyl]-urea]
≤ 10 µM: Kit | B-Raf | Jnk1 | B-Raf V600E | Jnk3 | Fms

CCCCN(CCCC)C(=O)n1ccc2c(C(=O)c3c[nH]c4ncc(-c5cccnc5)cc34)cccc21 [Compound P-1636, 4-(5-pyridin-3-yl-1H-pyrrolo[2,3-b]pyridine-3-carbonyl)-indole-1-carboxylic acid dibutylamide]
≤ 10 µM: B-Raf | Jnk1 | B-Raf V600E | Jnk3 | Fms

COc1ccc(NC(=O)Nc2cccc(C(=O)c3c[nH]c4ncccc34)c2)cc1OC [Compound P-1708, 1-(3,4-Dimethoxy-phenyl)-3-[3-(1H-pyrrolo[2,3-b]pyridine-3-carbonyl)-phenyl]-urea]
≤ 10 µM: Kit | B-Raf | Jnk1 | B-Raf V600E | Fms

CCCS(=O)(=O)Nc1ccc(F)c(C(=O)c2c[nH]c3ncc(-c4ccc(F)cc4)cc23)c1F [Compound P-1260, Propane-1-sulfonic acid {2,4-difluoro-3-[5-(4-fluoro-phenyl)-1H-pyrrolo[2.3 b]pyridine-3-carbonyl]-phenyl}-amide]
not listed: Jnk3 | Ret
≤ 10 µM: all other assays above

O=C(NCc1ccccc1)Nc1cccc(C(=O)c2c[nH]c3ncc(Br)cc23)c1 [Compound P-1553, 1-Benzyl-3-[3-(5-bromo-1H-pyrrolo[2,3-b]pyridine-3-carbonyl)-phenyl]-urea]
≤ 10 µM: Flt1 | Kit | B-Raf | Jnk1 | B-Raf V600E | Fms

CCCS(=O)(=O)Nc1cccc(C(=O)c2c[nH]c3ncc(-c4ccc(F)cc4)cc23)c1 [Compound P-1639]
≤ 10 µM: B-Raf | Jnk1 | B-Raf V600E | Fms

COc1ccc(NC(=O)Nc2cccc(C(=O)c3c[nH]c4ncc(-c5cccnc5)cc34)c2)cc1OC [Compound P-1725, 1-(3,4-Dimethoxy-phenyl)-3-[3-(5-pyridin-3-yl-1H-pyrrolo[2,3-b]pyridine-3-carbonyl)-phenyl]-urea]
≤ 10 µM: B-Raf | Jnk1 | B-Raf V600E | Fms

CCCCNC(=O)Nc1cccc(C(=O)c2c[nH]c3ncc(Br)cc23)c1 [Compound P-1596, 1-[3-(5-bromo-1H-pyrrolo[2,3-b]pyridine-3-carbonyl)-phenyl]-3-butyl-urea]
≤ 10 µM: Flt1 | B-Raf | Jnk1 | B-Raf V600E | Fms

CCCS(=O)(=O)Nc1ccc(F)c(C(=O)c2c[nH]c3ncc(-c4ccc(OC)nc4)cc23)c1F [Compound P-1879, Propane-1-sulfonic acid {2,4-difluoro-3-[5-(6-methoxy-pyridin-3-yl)-1H-pyrrolo[2,3-b]pyridine-3-carbonyl]-phenyl}-amide]
≤ 10 µM: Kit | B-Raf | Jnk1 | B-Raf V600E | Fms | c-Raf-1

CS(=O)(=O)Nc1cccc(-c2cnc3[nH]cc(C(=O)c4c(Cl)ccc(NS(C)(=O)=O)c4F)c3c2)c1 [Compound P-0745, N-{4-Chloro-2-fluoro-3-[5-(3-methanesulfonylamino-phenyl)-1H-pyrrolo[2,3-b]pyridine-3-carbonyl]-phenyl}-methanesulfonamide]
≤ 10 µM: FGFR1 | B-Raf | Jnk1 | B-Raf V600E | Ret | c-Raf-1

CC(C)c1ccc(S(=O)(=O)Nc2ccc(F)c(C(=O)c3c[nH]c4ncc(Cl)cc34)c2F)cc1 [Compound P-1839, N-[3-(5-chloro-1H-pyrrolo[2,3-b]pyridine-3-carbonyl)-2,4-difluoro-phenyl]-4-isopropyl-benzenesulfonamide]
≤ 10 µM: Kit | B-Raf | Jnk1 | B-Raf V600E | Fms | c-Raf-1

CCCS(=O)(=O)Nc1ccc(F)c(C(=O)c2c[nH]c3ncc(-c4cccc(C(N)=O)c4)cc23)c1F [Compound P-1549, 3-{3-[2,6-Difluoro-3-(propane-1-sulfonylamino)-benzoyl]-1H-pyrrolo[2,3-b]pyridin-5-yl}-benzamide]
not listed: Jnk3 | c-Raf-1 | Ret
≤ 10 µM: all other assays above

CCCS(=O)(=O)Nc1ccc(F)c(C(=O)c2c[nH]c3ncc(-c4cccc(N5CCOCC5)c4)cc23)c1F [Compound P-1873, Propane-1-sulfonic acid {2,4-difluoro-3-[5-(3-morpholin-4-yl-phenyl)-1H-pyrrolo[2,3-b]pyridine-3-carbonyl]-phenyl}-amide]
≤ 10 µM: Kit | B-Raf | Jnk1 | B-Raf V600E | Fms | c-Raf-1

CCCS(=O)(=O)Nc1cccc(C(=O)c2c[nH]c3ncc(-c4cccnc4)cc23)c1 [Compound P-1638]
≤ 10 µM: B-Raf | Jnk1 | B-Raf V600E | Fms

CCCS(=O)(=O)Nc1ccc(F)c(C(=O)c2c[nH]c3ncc(N4CCC(C)CC4)cc23)c1F [Compound P-0860, propane-1-sulfonic acid {2,4-difluoro-3-[5-(4-methyl-piperidin-1-yl)-1H-pyrrolo[2,3-b]pyridine-3-carbonyl]-phenyl}-amide]
≤ 10 µM: FGFR1 | Kit | B-Raf | Jnk1 | B-Raf V600E | c-Raf-1

O=C(c1c[nH]c2ncc(-c3cccnc3)cc12)c1cccc2c1ccn2COCc1ccccc1 [Compound P-1523, (1-Benzyloxymethyl-1H-indol-4-yl)-(5-pyridin-3-yl-1H-pyrrolo[2,3-b]pyridin-3-yl)-methanone]
≤ 10 µM: Flt1 | Jnk1
